Among the data in patent publication US8415469B2, “Compounds and methods for kinase modulation, and indications therefor” (Plexxikon Inc., priority 2005, dated 2013) are IC50 values, retold here.

Common to all, as to type: biochemical
One assay concerns the target T1, B-Raf (Homo sapiens, UniProt P15056).
T1 construct: purchased Upstate Biotechnology
Kind of assay: AlphaScreen kinase assay, B-Raf. As to conditions: read-out: IC50, activity toward kinase B-Raf.

The target in a further assay is T2, Kit (Homo sapiens, UniProt P10721).
T2 construct: P1332.N6 BI PTP KIT M552-K948-X COD; His6 (N); made in house; host or cells: E. coli (PTP1B co-expressed)
T2 sequence (P10721 with tags, fused parts or gaps): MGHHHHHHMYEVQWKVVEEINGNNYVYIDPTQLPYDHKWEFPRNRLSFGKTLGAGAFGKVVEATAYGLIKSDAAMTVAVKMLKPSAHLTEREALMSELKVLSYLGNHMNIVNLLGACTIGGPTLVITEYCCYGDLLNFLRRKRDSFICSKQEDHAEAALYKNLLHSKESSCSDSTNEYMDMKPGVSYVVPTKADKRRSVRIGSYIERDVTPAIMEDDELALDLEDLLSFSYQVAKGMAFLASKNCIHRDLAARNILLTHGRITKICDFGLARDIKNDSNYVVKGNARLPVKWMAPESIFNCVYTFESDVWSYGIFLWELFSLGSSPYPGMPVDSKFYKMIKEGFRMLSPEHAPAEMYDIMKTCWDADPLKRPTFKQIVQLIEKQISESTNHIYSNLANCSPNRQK
Kind of assay: AlphaScreen kinase assay, Kit. Conditions: read-out: IC50, activity toward kinase Kit.

A further assay has as its target T3, FGFR1 (Homo sapiens, UniProt P11362, C488A/C584S).
T3 construct: P1351.pET N6 BI-PTP FGFR A458-E765-X C488A, C584S; made in house; host or cells: E. coli (PTP1B co-expressed)
Description: AlphaScreen kinase assay, FGFR1. As to conditions: read-out: IC50, activity toward kinase FGFR.

The next assay concerns the target T4, B-Raf V600E (Homo sapiens, UniProt P15056, V600E).
T4 construct: P4254. pFastBacBD-CDC37 BRAF D437-K722-X, V600E; His6 with pFastBac HT leader (TEV site) (N); made in house; host or cells: Sf9 (baculovirus; chaperone CDC37 co-expressed)
Kind of assay: AlphaScreen kinase assay, B-Raf V600E. Conditions: read-out: IC50, activity toward kinase B-Raf V600E.

In another assay the target is T5, Fms (Homo sapiens, UniProt P07333).
T5 construct: purchased Upstate Biotechnology
T5 sequence (P07333 20-972): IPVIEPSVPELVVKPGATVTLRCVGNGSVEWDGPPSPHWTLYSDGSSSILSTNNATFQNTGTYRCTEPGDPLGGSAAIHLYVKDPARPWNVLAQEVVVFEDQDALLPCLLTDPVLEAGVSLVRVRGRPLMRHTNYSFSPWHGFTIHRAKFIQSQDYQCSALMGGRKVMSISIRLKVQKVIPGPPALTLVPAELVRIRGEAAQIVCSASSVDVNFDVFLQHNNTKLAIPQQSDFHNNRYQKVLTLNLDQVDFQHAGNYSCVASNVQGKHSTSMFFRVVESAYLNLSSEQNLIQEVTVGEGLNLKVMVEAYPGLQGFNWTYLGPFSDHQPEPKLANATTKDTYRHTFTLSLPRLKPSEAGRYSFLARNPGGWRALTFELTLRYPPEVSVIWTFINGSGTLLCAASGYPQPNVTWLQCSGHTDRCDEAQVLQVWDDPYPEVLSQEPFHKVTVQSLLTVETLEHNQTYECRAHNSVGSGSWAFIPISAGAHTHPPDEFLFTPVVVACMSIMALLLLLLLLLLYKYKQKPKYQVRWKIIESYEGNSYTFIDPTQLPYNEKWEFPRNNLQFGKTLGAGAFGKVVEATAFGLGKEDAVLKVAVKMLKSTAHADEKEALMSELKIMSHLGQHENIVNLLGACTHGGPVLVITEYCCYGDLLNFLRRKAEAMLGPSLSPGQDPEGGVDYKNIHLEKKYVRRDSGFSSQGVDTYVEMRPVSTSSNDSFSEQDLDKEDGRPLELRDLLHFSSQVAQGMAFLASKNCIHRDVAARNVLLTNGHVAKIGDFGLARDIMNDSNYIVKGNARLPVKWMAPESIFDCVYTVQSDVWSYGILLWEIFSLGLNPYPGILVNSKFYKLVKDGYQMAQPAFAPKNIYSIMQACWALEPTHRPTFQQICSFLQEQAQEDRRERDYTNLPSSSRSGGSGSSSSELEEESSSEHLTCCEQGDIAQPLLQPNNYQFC
Kind of assay: AlphaScreen kinase assay, Fms. As to conditions: read-out: IC50, activity toward kinase Fms.

T3 sequence (P11362 458-765 C488A/C584S): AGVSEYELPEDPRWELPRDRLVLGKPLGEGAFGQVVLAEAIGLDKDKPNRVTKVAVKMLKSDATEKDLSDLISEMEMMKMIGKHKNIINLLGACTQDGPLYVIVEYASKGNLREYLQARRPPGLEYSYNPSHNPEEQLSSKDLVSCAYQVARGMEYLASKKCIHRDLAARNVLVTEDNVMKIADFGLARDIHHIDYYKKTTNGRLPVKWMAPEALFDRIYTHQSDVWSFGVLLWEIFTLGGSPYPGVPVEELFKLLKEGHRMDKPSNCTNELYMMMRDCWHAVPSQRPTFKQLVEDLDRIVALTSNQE
T1 sequence (P15056 whole entry): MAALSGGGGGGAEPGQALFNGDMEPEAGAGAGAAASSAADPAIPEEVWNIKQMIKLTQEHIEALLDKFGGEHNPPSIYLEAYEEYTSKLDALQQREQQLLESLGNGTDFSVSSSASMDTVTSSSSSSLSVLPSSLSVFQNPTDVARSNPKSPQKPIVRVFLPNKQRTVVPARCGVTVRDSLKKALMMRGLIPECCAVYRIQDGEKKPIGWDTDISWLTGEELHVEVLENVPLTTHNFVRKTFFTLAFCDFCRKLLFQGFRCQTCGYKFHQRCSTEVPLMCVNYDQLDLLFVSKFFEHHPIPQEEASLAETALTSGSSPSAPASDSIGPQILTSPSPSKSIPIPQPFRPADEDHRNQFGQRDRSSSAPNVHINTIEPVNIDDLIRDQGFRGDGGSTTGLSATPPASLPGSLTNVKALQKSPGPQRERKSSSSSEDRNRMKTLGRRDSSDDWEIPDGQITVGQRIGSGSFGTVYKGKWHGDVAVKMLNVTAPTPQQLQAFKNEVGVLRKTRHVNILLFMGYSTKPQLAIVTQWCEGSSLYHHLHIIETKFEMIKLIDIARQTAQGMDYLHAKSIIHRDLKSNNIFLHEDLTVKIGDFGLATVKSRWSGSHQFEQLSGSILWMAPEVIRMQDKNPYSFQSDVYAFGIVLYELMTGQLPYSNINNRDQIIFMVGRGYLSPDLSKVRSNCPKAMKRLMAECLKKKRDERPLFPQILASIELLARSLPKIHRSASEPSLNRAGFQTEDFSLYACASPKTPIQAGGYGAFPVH
T4 sequence (P15056 with tags, fused parts or gaps V600E): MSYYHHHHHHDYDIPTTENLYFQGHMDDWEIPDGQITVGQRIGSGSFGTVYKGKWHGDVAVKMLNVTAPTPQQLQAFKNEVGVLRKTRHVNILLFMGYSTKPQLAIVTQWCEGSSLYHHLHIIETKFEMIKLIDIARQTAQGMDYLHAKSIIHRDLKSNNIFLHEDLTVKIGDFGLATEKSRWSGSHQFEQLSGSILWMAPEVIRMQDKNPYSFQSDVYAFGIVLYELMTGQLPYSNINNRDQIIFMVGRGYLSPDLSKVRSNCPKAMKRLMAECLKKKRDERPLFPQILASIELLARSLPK

For the compound `COc1cccc(Cc2c[nH]c3ncc(Br)cc23)c1` [Compound P-0556], the IC50 at B-Raf, on Kit and at FGFR1 was not above 10 µM each time.
For `CCCS(=O)(=O)Nc1ccc(F)c(Cc2c[nH]c3ncc(N4CCC(C)CC4)cc23)c1F` [Compound P-0984, Propane-1-sulfonic acid {2,4-difluoro-3-[5-(4-methyl-piperidin-1-yl)-1H-pyrrolo[2,3-b]pyridin-3-ylmethyl]-phenyl}-amide], the IC50 on B-Raf and at B-Raf V600E was not above 10 µM each time.
Regarding `CCCS(=O)(=O)Nc1cccc(C(=O)c2c[nH]c3ncc(Br)cc23)c1` [Compound P-1116, propane-1-sulfonic acid [3-(5-bromo-1H-pyrrolo[2,3-b]pyridin-3-carbonyl)-phenyl]-amide], the IC50 on B-Raf, on B-Raf V600E and at FGFR1 was not above 10 µM throughout.
Consider `O=C(c1c(F)ccc(NS(=O)(=O)c2ccsc2)c1F)c1c[nH]c2ncc(Cl)cc12` [Compound P-1268, Thiophene-3-sulfonic acid [3-(5-chloro-1H-pyrrolo[2,3-b]pyridin-3-carbonyl)-2,4-difluoro-phenyl]-amide], for which the IC50 on B-Raf and on Kit was not above 10 µM throughout.
Regarding `CCCS(=O)(=O)Nc1ccc(F)c(C(=O)c2c[nH]c3ncc(CCC(=O)O)cc23)c1F` [Compound P-1270, 3-3-[2,6-difluoro-3-(propane-1-sulfonylamino)-benzoyl]-1H-pyrrolo[2,3-b]pyridin-5-yl-propionic acid], the IC50 at B-Raf, at B-Raf V600E and on FGFR1 was not above 10 µM in each case.
For `O=S(=O)(Nc1ccc(F)c(C(O)c2c[nH]c3ncc(Cl)cc23)c1F)c1ccc(C(F)(F)F)cc1` (stereo not shown) [Compound P-1539], the IC50 on B-Raf, at B-Raf V600E and at FGFR1 was not above 10 µM each time.
Turning to `O=C(c1cc(NS(=O)(=O)c2cccc(F)c2)ccc1Cl)c1c[nH]c2ncc(Cl)cc12` [Compound P-1663], the IC50 on B-Raf, on B-Raf V600E and at Fms was not above 10 µM each time.
On to `COc1cnc2[nH]cc(C(=O)c3cc(NS(=O)(=O)c4cccc(F)c4)ccc3Cl)c2c1` [Compound P-1664], for which the IC50 at B-Raf, at B-Raf V600E and at Fms was not above 10 µM in each case.
In the case of `O=C(c1cc(NS(=O)(=O)c2cccc(F)c2)ccc1F)c1c[nH]c2ncc(Cl)cc12` [Compound P-1665], the IC50 at B-Raf, at B-Raf V600E and on Fms was not above 10 µM throughout.
Turning to `O=C(c1c(F)ccc(NS(=O)(=O)c2ccc(C(F)(F)F)cc2)c1F)c1c[nH]c2ncc(-c3ccc(Cl)cc3)cc12` [Compound P-1670], the IC50 on B-Raf, at B-Raf V600E and on Fms was not above 10 µM in each case.
For the compound `N#Cc1ccc(S(=O)(=O)Nc2cccc(C(=O)c3c[nH]c4ncccc34)c2)cc1` [Compound P-1701], the IC50 at B-Raf, on B-Raf V600E and on Fms was not above 10 µM each time.
Turning to `O=C(Nc1cccc(Cl)c1)Nc1cccc(C(=O)c2c[nH]c3ncccc23)c1` [Compound P-1710, 1-(3-Chloro-phenyl)-3-[3-(1H-pyrrolo[2,3-b]pyridine-3-carbonyl)-phenyl]-urea], the half-maximal inhibitory concentration (IC50) at B-Raf, on B-Raf V600E and on Fms was not above 10 µM in each case.
In the case of `CCCCOc1ccc(NC(=O)Nc2cccc(C(=O)c3c[nH]c4ncccc34)c2)cc1` [Compound P-1715, 1-(4-Butoxy-phenyl)-3-[3-(1H -pyrrolo[2,3-b]pyridine-3-carbonyl)-phenyl]-urea], the IC50 at B-Raf, on B-Raf V600E and on Fms was not above 10 µM throughout.
Consider `O=C(Nc1ccc(C(F)(F)F)cc1)Nc1cccc(C(=O)c2c[nH]c3ncccc23)c1` [Compound P-1717, 1-[3-(1H-Pyrrolo[2,3-b]pyridine-3-carbonyl)-phenyl]-3-(4-trifluoromethyl-phenyl)-urea], for which the IC50 on B-Raf, at B-Raf V600E and at Fms was not above 10 µM in each case.
As to `O=C(Nc1cccc(Cl)c1)Nc1cccc(C(=O)c2c[nH]c3ncc(-c4cccnc4)cc23)c1` [Compound P-1726, 1-(3-Chloro-phenyl)-3-[3-(5-pyridin-3-yl-1H-pyrrolo[2,3-b]pyridine-3-carbonyl)-phenyl]-urea], the IC50 at B-Raf, at B-Raf V600E and on Fms was not above 10 µM each time.
For `COc1ccc(NC(=O)Nc2cccc(C(=O)c3c[nH]c4ncc(Cl)cc34)c2)cc1` [Compound P-1734, 1-[3-(5-Chloro-1H-pyrrolo[2,3-b]pyridine-3-carbonyl)-phenyl]-3-(4-methoxy-phenyl)-urea], the IC50 on B-Raf, at B-Raf V600E and on Fms was not above 10 µM each time.
As for `O=C(Nc1cccc(C(=O)c2c[nH]c3ncc(Cl)cc23)c1)Nc1ccc(F)c(F)c1` [Compound P-1735, 1-[3-(5-Chloro-1H-pyrrolo[2,3-b]pyridine-3-carbonyl)-phenyl]-3-(3,4-difluoro-phenyl)-urea], the IC50 on B-Raf, on B-Raf V600E and on Fms was not above 10 µM throughout.
Consider `O=C(Nc1cccc(Cl)c1)Nc1cccc(C(=O)c2c[nH]c3ncc(Cl)cc23)c1` [Compound P-1736, 1-(3-Chloro-phenyl)-3-[3-(5-chloro-1H-pyrrolo[2,3-b]pyridine-3-carbonyl)-phenyl]-urea], for which the IC50 at B-Raf, at B-Raf V600E and at Fms was not above 10 µM each time.
For the compound `CCCCOc1ccc(NC(=O)Nc2cccc(C(=O)c3c[nH]c4ncc(Cl)cc34)c2)cc1` [Compound P-1741, 1-(4-Butoxy-phenyl)-3-[3-(5-chloro-1H-pyrrolo[2,3-b]pyridine-3-carbonyl)-phenyl]-urea], the IC50 at B-Raf, at B-Raf V600E and on Fms was not above 10 µM in each case.
On to `O=C(Nc1cccc(C(=O)c2c[nH]c3ncccc23)c1)Nc1cccc(C(F)(F)F)c1` [Compound P-1746, 1-[3-(1H-Pyrrolo[2,3-b]pyridine-3-carbonyl)-phenyl]-3-(3-trifluoromethyl-phenyl)-urea], for which the IC50 at B-Raf, at B-Raf V600E and at Fms was not above 10 µM each time.
With `O=C(Nc1cccc(C(=O)c2c[nH]c3ncc(Cl)cc23)c1)Nc1cccc(C(F)(F)F)c1` [Compound P-1747, 1-[3-(5-Chloro-1H-pyrrolo[2,3-b]pyridine-3-carbonyl)-phenyl]-3-(3-trifluoromethyl-phenyl)-urea], the IC50 on B-Raf, on B-Raf V600E and at Fms was not above 10 µM throughout.
Take `O=C(Nc1cccc(C(=O)c2c[nH]c3ncc(-c4ccc(F)cc4)cc23)c1)Nc1cc(C(F)(F)F)ccc1Cl` [Compound P-1752, 1-(2-Chloro-5-trifluoromethyl-phenyl)-3-{3-[5-(4-fluoro-phenyl)-1H-pyrrolo[2,3-b]pyridine-3-carbonyl]-phenyl}-urea]: the IC50 at B-Raf and on B-Raf V600E was not above 10 µM each time.
As for `Cc1cccc(NC(=O)Nc2cccc(C(=O)c3c[nH]c4ncc(-c5ccc(F)cc5)cc34)c2)c1` [Compound P-1758, 1-{3-[5-(4-Fluoro-phenyl)-1H-pyrrolo[2,3-b]pyridine-3-carbonyl]-phenyl}-3-m-tolyl-urea], the IC50 on B-Raf, at B-Raf V600E and at Fms was not above 10 µM each time.
On to `COc1cc(NC(=O)Nc2cccc(C(=O)c3c[nH]c4ncccc34)c2)cc(C(F)(F)F)c1` [Compound P-1762, 1-(3-Methoxy-5-trifluoromethyl-phenyl)-3-[3-(1H-pyrrolo[2,3-b]pyridine-3-carbonyl)-phenyl]-urea], for which the IC50 on B-Raf, at B-Raf V600E and at Fms was not above 10 µM each time.
In the case of `COc1ccc(NC(=O)Nc2cccc(C(=O)c3c[nH]c4ncccc34)c2)cn1` [Compound P-1763, 1-(6-Methoxy-pyridin-3-yl)-3-[3-(1H-pyrrolo[2,3-b]pyridine-3-carbonyl)-phenyl]-urea], the IC50 at B-Raf, on B-Raf V600E and at Fms was not above 10 µM each time.
As to `Cc1ccc(S(=O)(=O)Nc2ccc(F)c(C(=O)c3c[nH]c4ncc(Cl)cc34)c2F)cc1F` [Compound P-1823, N-[3-(5-Chloro-1H-pyrrolo[2,3-b]pyridine-3-carbonyl)-2,4-difluoro-phenyl]-3-fluoro-4-methyl-benzenesulfonamide], the IC50 at B-Raf and at B-Raf V600E was not above 10 µM each time.
In the case of `O=C(c1c(F)ccc(NS(=O)(=O)c2cc(F)cc(F)c2)c1F)c1c[nH]c2ncc(Cl)cc12` [Compound P-1841, N-[3-(5-chloro-1H-pyrrolo[2,3-b]pyridine-3-carbonyl)-2,4-difluoro-phenyl]-3,5-difluorobenzenesulfonamide], the IC50 at B-Raf and at B-Raf V600E was not above 10 µM in each case.
On to `O=C(c1c(F)ccc(NS(=O)(=O)c2ccc(F)cc2)c1F)c1c[nH]c2ncccc12` [Compound P-1865, N-[2,4-Difluoro-3-(1H-pyrrolo[2,3-b]pyridine-3-carbonyl)-phenyl]-4-fluoro-benzenesulfonamide], for which the IC50 on B-Raf, on B-Raf V600E and at Kit was not above 10 µM in each case.
